# ChEMBL document CHEMBL5532637, “Antimicrobial activity of natural and semi-synthetic carbazole alkaloids” (Eur J Med Chem, 2023)
# Assays:
# Klebsiella pneumoniae [1] = experiment: Antibacterial activity against Klebsiella pneumoniae ATCC 13883 assessed as zone of inhibition at 40 ug/ml incubated for 24 hrs by disk diffusion method; format: functional; conditions: read-out: IZ
# Escherichia coli [2] = experiment: Antibacterial activity against Escherichia coli ATCC 25922 assessed as zone of inhibition at 40 ug/ml incubated for 24 hrs by disk diffusion method; format: functional; conditions: read-out: IZ
# Staphylococcus aureus [3] = experiment: Antibacterial activity against Staphylococcus aureus ATCC 6538 assessed as zone of inhibition at 40 ug/ml incubated for 24 hrs by disk diffusion method; format: functional; conditions: read-out: IZ
# Bacillus subtilis [4] = experiment: Antibacterial activity against Bacillus subtilis ATCC 6633 assessed as zone of inhibition at 40 ug/ml incubated for 24 hrs by disk diffusion method; format: functional; conditions: read-out: IZ
# Klebsiella pneumoniae [5] = experiment: Antibacterial activity against colistin resistant Klebsiella pneumoniae assessed as inhibition of bacterial growth incubated for 24 hrs; format: functional
# Staphylococcus aureus [6] = experiment: Antibacterial activity against methicillin-resistant Staphylococcus aureus assessed as inhibition of bacterial growth incubated for 12 to 36 hrs by broth dilution method; format: functional; conditions: time 12-36 hrs
# Enterococcus faecalis = experiment: Antibacterial activity against multidrug-resistant Enterococcus faecalis assessed as inhibition of bacterial growth incubated for 12 to 36 hrs by broth dilution method; format: functional; conditions: time 12-36 hrs
# Escherichia coli [7] = experiment: Antibacterial activity against Escherichia coli ATCC 25922 assessed as inhibition of bacterial growth incubated for 24 hrs by disk diffusion method; format: functional
# Micrococcus luteus = experiment: Antibacterial activity against Micrococcus luteus ATCC 21881 assessed as inhibition of bacterial growth incubated for 24 hrs by disk diffusion method; format: functional
# Bacillus subtilis [8] = experiment: Antibacterial activity against Bacillus subtilis NRRL B-14819 assessed as inhibition of bacterial growth incubated for 24 hrs by disk diffusion method; format: functional
# Candida albicans [9] = experiment: Antifungal activity against Candida albicans assessed as inhibition of fungal growth incubated for 1 hr by serial plate dilution method; format: functional
# Staphylococcus aureus [10] = experiment: Antibacterial activity against Staphylococcus aureus ATCC 6538 assessed as inhibition of bacterial growth incubated for 24 hrs by disk diffusion method; format: functional
# Staphylococcus aureus [11] = experiment: Antibacterial activity against methicillin-resistant Staphylococcus aureus assessed as inhibition of bacterial growth by two-fold serial dilution assay; format: functional
# Staphylococcus aureus [12] = experiment: Antibacterial activity against Staphylococcus aureus assessed as inhibition of bacterial growth by two-fold serial dilution assay; format: functional
# Staphylococcus aureus [13] = experiment: Antibacterial activity against Staphylococcus aureus ATCC 25923 assessed as inhibition of bacterial growth by two-fold serial dilution assay; format: functional
# Staphylococcus aureus [14] = experiment: Antibacterial activity against Staphylococcus aureus ATCC 29213 assessed as inhibition of bacterial growth by two-fold serial dilution assay; format: functional
# Klebsiella pneumoniae [15] = experiment: Antimicrobial activity against Klebsiella pneumoniae ATCC 4352 assessed as inhibition of microbial growth by microbroth dilution method; format: functional
# Staphylococcus aureus [16] = experiment: Antimicrobial activity against Staphylococcus aureus ATCC 6538 assessed as inhibition of microbial growth by microbroth dilution method; format: functional
# Candida albicans [17] = experiment: Antimicrobial activity against Candida albicans ATCC 10231 assessed as inhibition of microbial growth by microbroth dilution method; format: functional
# Salmonella typhi = experiment: Antibacterial activity against Salmonella typhi assessed as inhibition of bacterial growth incubated for 18 to 24 hrs by broth macrodilution assay; format: functional, Salmonella enterica subsp. enterica serovar Typhi; conditions: Salmonella enterica; time 18-24 hrs
# Pseudomonas aeruginosa = experiment: Antibacterial activity against Pseudomonas aeruginosa assessed as inhibition of bacterial growth incubated for 18 to 24 hrs by broth macrodilution assay; format: functional; conditions: time 18-24 hrs
# Escherichia coli [18] = experiment: Antibacterial activity against Escherichia coli assessed as inhibition of bacterial growth incubated for 18 to 24 hrs by broth macrodilution assay; format: functional; conditions: time 18-24 hrs
# Pichia kudriavzevii = experiment: Antifungal activity against Candida krusei DSM 6128 assessed as inhibition of fungal growth incubated for 24 hrs by broth dilution method; format: functional
# Nakaseomyces glabratus = experiment: Antifungal activity against Candida glabrata DSM 11226 assessed as inhibition of fungal growth incubated for 24 hrs by broth dilution method; format: functional
# Candida albicans [19] = experiment: Antifungal activity against Candida albicans ATCC 10231 assessed as inhibition of fungal growth incubated for 24 hrs by broth dilution method; format: functional
# Escherichia coli [20] = experiment: Antibacterial activity against Escherichia coli assessed as inhibition of bacterial growth by micro broth dilution method; format: functional
# Staphylococcus aureus [21] = experiment: Antibacterial activity against methicillin-resistant Staphylococcus aureus N315 assessed as inhibition of bacterial growth by micro broth dilution method; format: functional
# Aspergillus niger = experiment: Antimicrobial activity against Aspergillus niger assessed as zone of inhibition at 50 ug/ml; format: functional; conditions: read-out: IZ
# Bacillus subtilis [22] = experiment: Antimicrobial activity against Bacillus subtilis assessed as zone of inhibition at 40 ug/ml; format: functional; conditions: read-out: IZ
# Klebsiella pneumoniae [23] = experiment: Antimicrobial activity against Klebsiella pneumoniae assessed as zone of inhibition at 40 ug/ml; format: functional; conditions: read-out: IZ
# Fusarium oxysporum = experiment: Antimicrobial activity against Fusarium oxysporum assessed as zone of inhibition at 50 ug/ml; format: functional; conditions: read-out: IZ
# Aspergillus flavus = experiment: Antimicrobial activity against Aspergillus flavus assessed as zone of inhibition at 50 ug/ml; format: functional; conditions: read-out: IZ
# Staphylococcus aureus [24] = experiment: Antimicrobial activity against Staphylococcus aureus assessed as zone of inhibition at 40 ug/ml; format: functional; conditions: read-out: IZ
# Escherichia coli [25] = experiment: Antimicrobial activity against Escherichia coli assessed as zone of inhibition at 40 ug/ml; format: functional; conditions: read-out: IZ
# Staphylococcus aureus [26] = experiment: Antibacterial activity against Staphylococcus aureus PTCC 1133 assessed as inhibition of bacterial growth by serial dilution assay; format: functional
# Escherichia coli [27] = experiment: Antibacterial activity against Escherichia coli PTCC 1330 assessed as inhibition of bacterial growth by serial dilution assay; format: functional
# [28] = tested on: Staphylococcus epidermidis; experiment: Antibacterial activity against Staphylococcus epidermidis ATCC 12228 assessed as inhibition of bacterial growth incubated for 24 hrs by alamar blue assay; format: functional
# Staphylococcus aureus [29] = experiment: Antibacterial activity against Staphylococcus aureus ATCC 6538 assessed as inhibition of bacterial growth incubated for 24 hrs by alamar blue assay; format: functional
smiles,measurement,setting,value
CCn1c2ccccc2c2cc(-c3cc(=O)c4ccccc4o3)ccc21,zone of inhibition at 40 µg/mL,Klebsiella pneumoniae [1],27 mm
same,zone of inhibition at 40 µg/mL,Escherichia coli [2],29 mm
same,zone of inhibition at 40 µg/mL,Staphylococcus aureus [3],24 mm
same,zone of inhibition at 40 µg/mL,Bacillus subtilis [4],25 mm
CCn1c2ccccc2c2c3[nH]c(C(=O)NNC(=O)c4ccc([N+](=O)[O-])cc4)cc3ccc21,MIC,Klebsiella pneumoniae [5],64 µg/mL
Oc1cc(-c2ccc3c(c2)[nH]c2ccccc23)cc(O)c1O,MIC,Staphylococcus aureus [6],3.13 µg/mL
same,MIC,Enterococcus faecalis,6.25 µg/mL
CC1=NN(c2ccccc2)C(=O)/C1=N\NNC(=O)Cn1c2ccccc2c2ccccc21,MIC,Escherichia coli [7],6.4 µg/mL
same,MIC,Micrococcus luteus,3.1 µg/mL
same,MIC,Bacillus subtilis [8],1.2 µg/mL
same,MIC,Candida albicans [9],9.6 µg/mL
same,MIC,Staphylococcus aureus [10],1.1 µg/mL
Sc1nnc(Cn2c3ccc(Br)cc3c3cc(Br)ccc32)o1,MIC,Staphylococcus aureus [11],0.6 µM
same,MIC,Staphylococcus aureus [12],0.6 µM
same,MIC,Staphylococcus aureus [13],0.6 µM
same,MIC,Staphylococcus aureus [14],0.6 µM
Oc1c(/C=N/c2ccc(Cl)cc2Cl)ccc2[nH]c3ccccc3c12,MIC,Klebsiella pneumoniae [15],1.4 µg/mL
same,MIC,Staphylococcus aureus [16],1.4 µg/mL
same,MIC,Candida albicans [17],1.4 µg/mL
CCOC(=O)C1=C(C)NC2=C(C(=O)CC(C)(C)C2)C1c1ccc2c(c1)c1ccccc1n2CC (stereo not drawn),MIC,Salmonella typhi,16 µg/mL
same,MIC,Pseudomonas aeruginosa,16 µg/mL
same,MIC,Escherichia coli [18],16 µg/mL
CNc1nc(Nc2ccc3[nH]c4ccc(Nc5cnc(N)c(NC)n5)cc4c3c2)cnc1N,MIC,Pichia kudriavzevii,31.2 µg/mL
same,MIC,Nakaseomyces glabratus,62.5 µg/mL
same,MIC,Candida albicans [19],250 µg/mL
Cn1c(=O)c2ncn(CC(O)Cn3c4ccccc4c4cc(Br)ccc43)c2n(C)c1=O (stereo not drawn),MIC,Escherichia coli [20],33 µM
same,MIC,Staphylococcus aureus [21],8 µM
CCn1c2ccccc2c2cc(/C=C/C(=O)c3cc(Cl)cc(Cl)c3OCc3cn(Cc4ccccc4)nn3)ccc21,zone of inhibition at 50 µg/mL,Aspergillus niger,15 mm
same,zone of inhibition at 40 µg/mL,Bacillus subtilis [22],24.2 mm
same,zone of inhibition at 40 µg/mL,Klebsiella pneumoniae [23],23.6 mm
same,zone of inhibition at 50 µg/mL,Fusarium oxysporum,15.3 mm
same,zone of inhibition at 50 µg/mL,Aspergillus flavus,12.9 mm
same,zone of inhibition at 40 µg/mL,Staphylococcus aureus [24],21.4 mm
same,zone of inhibition at 40 µg/mL,Escherichia coli [25],26.4 mm
CCC(O)Cn1cc(Cn2c3ccccc3c3ccccc32)nn1 (stereo not drawn),MIC50,Staphylococcus aureus [26],1.56 µg/mL
same,MIC50,Escherichia coli [27],3.12 µg/mL
COc1ccccc1OCCNCC(O)COc1cccc2[nH]c3ccccc3c12 (stereo not drawn) [CARVEDILOL],MIC,[28],40 µg/mL
same,MIC,Staphylococcus aureus [29],40 µg/mL
